# Reference: ChEMBL document CHEMBL1136200, “Potent and selective inhibitors of platelet-derived growth factor receptor phosphorylation. Part 4: structure-activity relationships for substituents on the quinazoline moiety of 4-[4-(N-substituted(thio)carbamoyl)-1-piperazinyl]-6,7-dimethoxyquinazoline derivatives” (Bioorg Med Chem Lett, 2003)
# pIC50: −log10 of the molar value.
# Target: Platelet-derived growth factor receptor beta (Homo sapiens, UniProt P09619)
# Test: Inhibitory concentration against platelet-derived growth factor receptor beta phosphorylation in CHO cells
# Assay type: functional, cell-based, Cricetulus griseus
# Sequence of Platelet-derived growth factor receptor beta (P09619 whole entry): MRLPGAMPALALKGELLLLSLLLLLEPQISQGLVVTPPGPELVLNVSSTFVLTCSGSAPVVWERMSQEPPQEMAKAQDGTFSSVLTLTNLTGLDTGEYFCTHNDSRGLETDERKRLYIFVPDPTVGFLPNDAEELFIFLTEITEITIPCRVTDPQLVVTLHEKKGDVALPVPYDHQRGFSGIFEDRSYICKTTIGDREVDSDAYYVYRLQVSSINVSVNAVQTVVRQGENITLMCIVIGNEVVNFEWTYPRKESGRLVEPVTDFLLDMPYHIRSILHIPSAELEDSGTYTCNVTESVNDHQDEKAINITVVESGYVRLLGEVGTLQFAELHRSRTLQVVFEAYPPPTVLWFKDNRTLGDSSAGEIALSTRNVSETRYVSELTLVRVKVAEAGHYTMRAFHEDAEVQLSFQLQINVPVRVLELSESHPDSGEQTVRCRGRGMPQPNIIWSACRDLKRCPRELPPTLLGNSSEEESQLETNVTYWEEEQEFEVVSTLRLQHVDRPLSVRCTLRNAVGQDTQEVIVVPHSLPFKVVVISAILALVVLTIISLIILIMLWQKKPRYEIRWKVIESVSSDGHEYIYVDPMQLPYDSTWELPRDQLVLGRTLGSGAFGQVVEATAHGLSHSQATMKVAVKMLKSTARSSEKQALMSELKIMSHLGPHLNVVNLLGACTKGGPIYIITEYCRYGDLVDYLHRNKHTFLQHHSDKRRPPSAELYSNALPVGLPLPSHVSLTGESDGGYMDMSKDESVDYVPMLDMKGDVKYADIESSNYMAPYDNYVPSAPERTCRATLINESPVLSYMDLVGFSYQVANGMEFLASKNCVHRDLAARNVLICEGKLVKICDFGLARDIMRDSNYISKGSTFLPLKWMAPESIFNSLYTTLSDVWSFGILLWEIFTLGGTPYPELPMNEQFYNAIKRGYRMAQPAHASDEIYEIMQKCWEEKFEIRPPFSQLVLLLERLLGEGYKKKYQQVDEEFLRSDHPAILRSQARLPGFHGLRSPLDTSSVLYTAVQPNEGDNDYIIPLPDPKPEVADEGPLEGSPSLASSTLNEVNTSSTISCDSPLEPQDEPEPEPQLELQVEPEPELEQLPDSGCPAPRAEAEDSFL
row,SMILES,pIC50
1,O=C(Nc1ccc(Oc2ccccc2)cc1)N1CCN(c2ncnc3cc(F)c(F)cc23)CC1,6.01
2,O=C(Nc1ccc(Oc2ccccc2)cc1)N1CCN(c2ncnc3cc([N+](=O)[O-])ccc23)CC1,5.54
3,S=C(NCc1ccccc1)N1CCN(c2ncnc3cc(Cl)ccc23)CC1,5.29
4,CC(C)Oc1ccc2c(N3CCN(C(=O)Nc4ccc(Oc5ccccc5)cc4)CC3)ncnc2c1,5.95
5,Nc1cc2c(N3CCN(C(=S)NCc4ccccc4)CC3)ncnc2cc1Cl,6.80
6,CC(=O)Nc1cc2c(N3CCN(/C(S)=N\Cc4ccccc4)CC3)ncnc2cc1Cl,< 6.00
7,Cc1cccc2ncnc(N3CCN(C(=O)Nc4ccc(Oc5ccccc5)cc4)CC3)c12,5.20
8,COc1cccc2c(N3CCN(C(=O)Nc4ccc(Oc5ccccc5)cc4)CC3)ncnc12,4.97
9,Cc1ccc2ncnc(N3CCN(C(=O)Nc4ccc(Oc5ccccc5)cc4)CC3)c2c1,6.27

# The next lines start with the values.
row,pIC50,SMILES
1,< 4.52,O=[N+]([O-])c1cc2c(N3CCN(C(=S)NCc4ccccc4)CC3)ncnc2cc1Cl
2,< 6.12,COC(=O)c1ccc2c(N3CCN(C(=O)Nc4ccc(Oc5ccccc5)cc4)CC3)ncnc2c1
3,< 4.52,O=C(O)c1ccc2c(N3CCN(C(=O)Nc4ccc(Oc5ccccc5)cc4)CC3)ncnc2c1
4,5.94,Nc1cc2ncnc(N3CCN(C(=O)Nc4ccc(Oc5ccccc5)cc4)CC3)c2cc1[N+](=O)[O-]
5,5.86,O=C(Nc1ccc(Oc2ccccc2)cc1)N1CCN(c2ncnc3ccc(Br)cc23)CC1
6,5.29,O=C(Nc1ccc(Oc2ccccc2)cc1)N1CCN(c2ncnc3ccc(I)cc23)CC1
7,< 7.00,Cc1ccc2c(N3CCN(C(=O)Nc4ccc(Oc5ccccc5)cc4)CC3)ncnc2c1
8,6.46,O=C(Nc1ccc(Oc2ccccc2)cc1)N1CCN(c2ncnc3ccc(F)cc23)CC1
9,5.88,O=C(Nc1ccc(Oc2ccccc2)cc1)N1CCN(c2ncnc3cc(Cl)c([N+](=O)[O-])cc23)CC1
10,4.53,O=C(Nc1ccc(Oc2ccccc2)cc1)N1CCN(c2ncnc3ccc([N+](=O)[O-])cc23)CC1
